Eleven molecules from US20240270762A1, “PENICILLIN-BINDING PROTEIN INHIBITORS” (priority 2021, published 2024) can be followed below.

≈ marks a conversion by molar mass, not a printed value.

For one experiment, the system named is P. aeruginosa CDC-0090. Put plainly: microbe, parasite or virus in culture. The following applies: Pseudomonas aeruginosa, CDC0090, read-out: Minimum inhibitory concentration, P. aeruginosa CDC-0090. The experiment is classed as cell-based.
The subject of another experiment is A. baumannii CDC-0083. Put plainly: microbe, parasite or virus in culture. The experiment is classed as cell-based. The following applies: Acinetobacter baumannii, CDC0083, read-out: MIC, A. baumannii CDC-0083.
A further experiment has as its system P. aeruginosa CDC-0095. Put plainly: microbe, parasite or virus in culture. The experiment is classed as cell-based. Conditions: Pseudomonas aeruginosa, CDC0095, read-out: Minimum inhibitory concentration, P. aeruginosa CDC-0095.
Experiment [1] deals with T1, PBP1a from Acinetobacter baumannii (ATCC 19606) (Acinetobacter baumannii, UniProt A0ABX6CK30).
T1 sequence (A0ABX6CK30 1-851): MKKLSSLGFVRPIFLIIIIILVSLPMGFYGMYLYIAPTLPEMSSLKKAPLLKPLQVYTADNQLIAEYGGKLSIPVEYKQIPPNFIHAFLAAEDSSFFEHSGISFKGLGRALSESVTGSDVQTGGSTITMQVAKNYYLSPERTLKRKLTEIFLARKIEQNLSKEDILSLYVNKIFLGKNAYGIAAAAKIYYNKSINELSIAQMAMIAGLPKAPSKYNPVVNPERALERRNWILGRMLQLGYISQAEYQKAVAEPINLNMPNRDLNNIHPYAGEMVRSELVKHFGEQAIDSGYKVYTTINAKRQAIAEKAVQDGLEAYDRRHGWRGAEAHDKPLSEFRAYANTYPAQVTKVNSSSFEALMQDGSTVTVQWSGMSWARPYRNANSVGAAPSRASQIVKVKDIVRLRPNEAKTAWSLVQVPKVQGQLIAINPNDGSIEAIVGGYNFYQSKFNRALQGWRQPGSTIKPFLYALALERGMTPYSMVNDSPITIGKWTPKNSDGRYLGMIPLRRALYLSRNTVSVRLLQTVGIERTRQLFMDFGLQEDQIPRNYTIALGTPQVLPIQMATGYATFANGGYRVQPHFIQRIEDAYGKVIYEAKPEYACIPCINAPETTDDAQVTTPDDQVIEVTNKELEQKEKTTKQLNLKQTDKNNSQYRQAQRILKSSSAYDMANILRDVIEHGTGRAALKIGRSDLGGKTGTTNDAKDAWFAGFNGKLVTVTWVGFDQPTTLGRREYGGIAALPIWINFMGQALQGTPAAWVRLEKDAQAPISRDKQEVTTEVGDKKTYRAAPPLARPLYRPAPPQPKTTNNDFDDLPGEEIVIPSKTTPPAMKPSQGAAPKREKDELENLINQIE
Put plainly: Bocillin-FL fluorescence polarization competition binding, A. baumannii PBP1a. The following applies: fluorescence polarization competition binding assay using Bocillin-FL; read-out: A. baumannii PBP1a Potency. The text has this: To determine the ability of boronic acid-based test PBP inhibitors to bind Penicillin Binding Proteins (PBPs), Bocillin-FL (fluorescently-labeled penicillin V; ThermoFisher Scientific) was used in a fluorescence polarization (FP) competition binding assay to assess inhibitor binding to PBP3 from Escherichia coli (K-12), PBP3 from Pseudomonas aeruginosa (PAO1), PBP1a and PBP3 from Acinetobacter baumannii (ATCC 19606), and PBP2 from Neisseria gonorrhoeae (FA19). PBPs were cloned and purified as described previously (E. coli PBP3, King, D. T, et al., ACS Infectious Diseases 2015, 1, 175-184; P. aeruginosa PBP3, Han et. al., PNAS 2010, 107 (51), 22002-22007; A. baumannii PBPs, Penwell et. al., Antimicrob. Agents Chemother. 2015, 59 (3), 1680-1689; N. gonorrhoeae PBP2, Singh et. al., J. Biol. Chem. 2019, 294 (38), 14020-14032). To establish assay conditions for competition binding, enzyme titration/saturation binding experiments were initially performed. Bocillin-FL was prepared at 0.2 μM in a buffer comprised of 50 mM Hepes (pH 8.0), 300 mM NaCl and 10% (v/v) glycerol for reactions with E. coli, P. aeruginosa and N. gonorrhoeae PBPs, and 25 mM Tris (pH 8.0), 200 mM NaCl, 10% (v/v) glycerol and 0.005% (v/v) Tween 20 for reactions with A. baumannii PBPs. Saturation binding was performed by mixing 40 μl of PBP solutions ranging in concentrations from 0-24 μM with 40 μl of the 0.2 μM Bocillin-FL solution, in individual wells of a black 384-well microplate. FP was measured immediately upon mixing (Excitation, 490 nm; Emission, 520 nm; g-factor, 0.96), using a Cytation3 (BioTek) microplate reader and measured continuously for up to 120 minutes. The FP response stabilized after 15 minutes for P. aeruginosa and A. baumannii PBP3, 30 minutes for E. coli PBP3 and A. baumannii PBP1a, and less than 1 minute for N. gonorrhoeae PBP2. […] The competition binding assay (80 μl final volume) was validated using beta-lactams and PBPs at final concentrations of: 1.5 μM for E. coli PBP3; 0.75 μM for P. aeruginosa PBP3; 1 μM for A. baumannii PBP1a; 0.2 μM for A. baumannii PBP3; and 0.25 μM for N. gonorrhoeae PBP2. Bocillin-FL was at 0.1 μM (0.05 μM with A. baumannii PBP1a) and beta-lactam concentrations ranged from 0-1,000 μM. E. coli PBP3 was incubated with increasing concentrations of ampicillin in a black 384-well microplate (Corning) for 30 minutes. P. aeruginosa PBP3 was incubated for 15 minutes with aztreonam, whereas A. baumannii PBP1a and PBP3 were incubated for 15 minutes with meropenem, and then Bocillin-FL was added followed immediately by the FP measurement for up to 60 minutes. […] The beta-lactam potency was reported as the concentration of beta-lactam required to reduce the amount of PBP bound-Bocillin-FL by 50% (EC50). […] The EC50 of aztreonam was determined to be <0.5 μM for P. aeruginosa PBP3. […] Binding assays for boronic acid PBP inhibitors were performed in an identical fashion for the respective PBPs.
In general terms: Polarisation of emitted light reports the rotation of a fluorescent probe.

For the next experiment, the target named is T2, A. baumannii PBP1a (Acinetobacter baumannii, UniProt A0ABX6CK30).
T2 sequence (A0ABX6CK30 1-851): T1 sequence (A0ABX6CK30 1-851)
Put plainly: Bocillin-FL competition binding via gel filtration, A. baumannii PBP1a. The following applies: competition binding assay using Bocillin-FL via gel filtration; read-out: A. baumannii PBP1a Potency. The method in brief:
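Competitive equilibrium binding; reporter Bocillin-FL. PBP + inhibitor (titration) pre-incubated → Bocillin-FL, 15 min → gel filtration → fluorescence. EC50 from Hill fit of fraction bound vs [inhibitor].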
A general note: SEC sorts molecules by how far they enter the pores of the column.

Regarding `CS(=O)(=O)N1CCN(C(=O)N[C@@H](C(=O)N[C@H]2Cc3ccc(F)c(C(=O)O)c3OB2O)c2ccc(P(=O)(O)O)c(F)c2)C1=O` (single isomer, unassigned) [Example 19], the MIC in the experiment on P. aeruginosa CDC-0090, in the experiment with A. baumannii CDC-0083 and in the experiment on P. aeruginosa CDC-0095 was > 128 µg/mL each time.

For the molecule `O=C(O)c1c(F)ccc2c1OB(O)[C@@H](NC(=O)C(NC(=O)N1CCN(Cc3ccc(O)c(O)c3Cl)C(=O)C1=O)c1ccc(P(=O)(O)O)c(F)c1)C2` (stereo partly drawn) [Example 23, (3R)-3-(2-(4-(2-chloro-3,4-dihydroxybenzyl)-2,3-dioxopiperazine-1-carboxamido)-2-(3-fluoro-4-phosphonophenyl)acetamido)-7-fluoro-2-hydroxy-3,4-dihydro-2H-benzo[e][1,2]oxaborinine-8-carboxylic acid], the MIC was 8 to 16 µg/mL (≈ 10.6 to 21.3 µM) in the experiment on P. aeruginosa CDC-0090, < 1 µg/mL in the experiment on A. baumannii CDC-0083 and < 1 µg/mL in the experiment on P. aeruginosa CDC-0095. The IC50 in experiment [1] was > 250 µM. Moreover, the EC50 on A. baumannii PBP1a was in the range of 10 to 50 µM.

Take `CCN1CCN(C(=O)NC(C(=O)N[C@H]2Cc3cccc(C(=O)O)c3OB2O)c2ccc(CP(=O)(O)O)cc2)C(=O)C1=O` (stereo partly drawn) [Example 20, (3R)-3-(2-(4-ethyl-2,3-dioxopiperazine-1-carboxamido)-2-(4-(phosphonomethyl)phenyl)acetamido)-2-hydroxy-3,4-dihydro-2H-benzo[e][1,2]oxaborinine-8-carboxylic acid]: the IC50 in experiment [1] was > 250 µM.

`O=C(NCCN1CCN(C(=O)NC(C(=O)N[C@H]2Cc3ccc(F)c(C(=O)O)c3OB2O)c2ccc(P(=O)(O)O)cc2)C(=O)C1=O)c1ccc(O)c(O)c1Cl` (stereo partly drawn) [Example 120, (3R)-3-(2-(4-(2-(2-chloro-3,4-dihydroxybenzamido)ethyl)-2,3-dioxopiperazine-1-carboxamido)-2-(4-phosphonophenyl)acetamido)-7-fluoro-2-hydroxy-3,4-dihydro-2H-benzo[e][1,2]oxaborinine-8-carboxylic acid]: the MIC in the experiment with P. aeruginosa CDC-0090, with A. baumannii CDC-0083 and with P. aeruginosa CDC-0095 was < 1 µg/mL in each case. Besides, at A. baumannii PBP1a, the EC50 was 10 to 50 µM.

Consider `CS(=O)(=O)N1CCN(C(=O)NC(C(=O)N[C@H]2Cc3cccc(C(=O)O)c3OB2O)c2ccc(P(=O)(O)O)c(Cl)c2)C1=O` (stereo partly drawn) [Example 11, (3R)-3-(2-(3-chloro-4-phosphonophenyl)-2-(3-(methylsulfonyl)-2-oxoimidazolidine-1-carboxamido)acetamido)-2-hydroxy-3,4-dihydro-2H-benzo[e][1,2]oxaborinine-8-carboxylic acid], for which, in experiment [1], the IC50 lay in the range of 50 to 250 µM.

For `O=C(O)c1c(F)ccc2c1OB(O)[C@@H](NC(=O)C(NC(=O)N1CCN(Cc3ccc(O)c(O)c3Cl)C1=O)c1ccc(P(=O)(O)O)cc1)C2` (stereo partly drawn) [Example 46, (3R)-3-(2-(3-(2-chloro-3,4-dihydroxybenzyl)-2-oxoimidazolidine-1-carboxamido)-2-(4-phosphonophenyl)acetamido)-7-fluoro-2-hydroxy-3,4-dihydro-2H-benzo[e][1,2]oxaborinine-8-carboxylic acid], the MIC in the experiment on P. aeruginosa CDC-0090 is 2 to 4 µg/mL (≈ 2.83 to 5.66 µM); in the experiment with P. aeruginosa CDC-0095, < 1 µg/mL. Also, the IC50 in experiment [1] is > 250 µM. For the same molecule, at A. baumannii PBP1a, the EC50 is < 10 µM.

In the case of `CCN1CCN(C(=O)NC(C(=O)N[C@H]2Cc3cccc(C(=O)O)c3OB2O)c2cccc(CP(=O)(O)O)c2)C(=O)C1=O` (stereo partly drawn) [Example 22, (3R)-3-(2-(4-ethyl-2,3-dioxopiperazine-1-carboxamido)-2-(3-(phosphonomethyl)phenyl)acetamido)-2-hydroxy-3,4-dihydro-2H-benzo[e][1,2]oxaborinine-8-carboxylic acid], the IC50 in experiment [1] was > 250 µM.

As for `O=C(O)c1c(F)ccc2c1OB(O)[C@@H](NC(=O)C(NC(=O)N1CCN(Cc3ccc(O)c(O)c3Cl)C(=O)C1=O)c1ccc(P(=O)(O)O)cc1)C2` (stereo partly drawn) [Example 8, (3R)-3-(2-(4-(2-chloro-3,4-dihydroxybenzyl)-2,3-dioxopiperazine-1-carboxamido)-2-(4-phosphonophenyl)acetamido)-7-fluoro-2-hydroxy-3,4-dihydro-2H-benzo[e][1,2]oxaborinine-8-carboxylic acid], the MIC with P. aeruginosa CDC-0090 is 2 to 4 µg/mL (≈ 2.72 to 5.44 µM); in the experiment with A. baumannii CDC-0083 it was < 1 µg/mL; in the experiment with P. aeruginosa CDC-0095, < 1 µg/mL. At A. baumannii PBP1a, the EC50 lay in the range of 10 to 50 µM.

In the case of `CS(=O)(=O)N1CCN(C(=O)N[C@@H](C(=O)N[C@H]2Cc3ccc(F)c(C(=O)O)c3OB2O)c2ccc(P(=O)(O)O)c(F)c2F)C1=O` [Example 16, (R)-3-((R)-2-(2,3-difluoro-4-phosphonophenyl)-2-(3-(methylsulfonyl)-2-oxoimidazolidine-1-carboxamido)acetamido)-7-fluoro-2-hydroxy-3,4-dihydro-2H-benzo[e][1,2]oxaborinine-8-carboxylic acid], the IC50 in experiment [1] is > 250 µM.

As to `CS(=O)(=O)N1CCN(C(=O)N[C@@H](C(=O)N[C@H]2Cc3cccc(C(=O)O)c3OB2O)c2ccc(P(=O)(O)O)c(F)c2F)C1=O` (single isomer, unassigned) [Example 13], in experiment [1], the IC50 was > 250 µM.

On to `O=C(N[C@@H](C(=O)N[C@H]1Cc2cccc(C(=O)O)c2OB1O)c1ccc(P(=O)(O)O)cc1)c1ccc(O)c(O)c1Cl` [Example 49, (R)-3-((R)-2-(2-chloro-3,4-dihydroxybenzamido)-2-(4-phosphonophenyl)acetamido)-2-hydroxy-3,4-dihydro-2H-benzo[e][1,2]oxaborinine-8-carboxylic acid], for which the MIC with P. aeruginosa CDC-0090 was 2 to 4 µg/mL (≈ 3.39 to 6.77 µM); in the experiment on A. baumannii CDC-0083, > 128 µg/mL; with P. aeruginosa CDC-0095, < 1 µg/mL. Also, the EC50 on A. baumannii PBP1a lay within 10 to 50 µM.
